From US20130303500A1, “COMPOUNDS AND METHODS FOR TREATING NEOPLASIA” (Medexis S.A., priority 2010, published 2013)

How the values were obtained:
[1] = biological target: Na+/K+-ATPase (Adenosine 5′-Triphosphatase isolated from porcine cerebral cortex); assay: Na+/K+-ATPase inhibitory activity, colorimetric Adenosine 5′-Triphosphatase Enzymatic Assay (Sigma); format: biochemical; conditions: enzyme from porcine cerebral cortex, 0.5 units/ml
Description: The compound inhibitory effect on ATPase activity was assessed in vitro using the colorimetric Adenosine 5′-Triphosphatase Enzymatic Assay of Sigma (St. Louis, Mo.) according to the manufacturer's instructions. This assay utilizes Adenosine 5′-Triphosphatase isolated from porcine cerebral cortex. Each reaction was performed in a final volume of […] using 0.5 units/ml enzyme in the presence of the different inhibitors. […] IC50 values were determined using the Origin® program software (OriginLab, Northampton, Mass.).

H460 (Lung) cells = assay: Sulforhodamine B (SRB) assay, H460; format: cell-based, human
Description: (§1) Sulforhodamine B (SRB) assays were performed according to standard National Cancer Institute Guidelines. Briefly, human tumor cells from different cancer panels were seeded into 96 well plates in […] (plating densities ranging from 5-40,000 cells/well depending on the doubling time of individual cell lines) in serum-containing media for twenty-four hours prior to the addition of the compounds to be assayed. After 24 hours, one plate of each cell line was fixed in situ with trichloroacetic acid (TCA). The fixed slides were used to determine the cell population for each cell line at the time of drug addition (Tz). Each compound to be tested was solubilized in dimethyl sulfoxide (DMSO) and the desired concentration was then added to the medium and diluted serially 1:10 to provide a total of five or ten drug concentrations plus control (in a final volume of 200 μL). The starting dose before any dilution was 100 uM for all compounds.
(§2) Following drug addition, each culture was incubated for forty-eight hours. The assay was terminated with the addition of cold TCA. The supernatant was discarded, and the plates were washed with tap water and air dried. SRB solution was then added to each well. After staining, the bound stain was solubilized and the absorbance was read on an automated plate reader at a wavelength of 515 nm.
(§3) Using the absorbance measurements [time zero, (Tz), control growth, (C), and test growth in the presence of drug at the ten concentration levels (Ti)], the percentage growth was calculated at each of the drug concentrations levels. Percentage growth inhibition was calculated as:
(§4) [(Ti−Tz)/(C−Tz)]×100 for concentrations for which Ti>/=Tz
(§5) [(Ti−Tz)/Tz]×100 for concentrations for which Ti<Tz.
(§6) Three dose response parameters were calculated for each experimental agent. Growth inhibition of 50% (GI50) was calculated from [(Ti−Tz)/(C−Tz)]×100=50, which was the drug concentration resulting in a 50% reduction in the net protein increase (as measured by SRB staining) in control cells during the drug. The drug concentration resulting in total growth inhibition (TGI) was calculated from Ti=Tz. The LC50 (concentration of drug resulting in a 50% reduction in the measured protein at the end of the drug treatment as compared to that at the beginning) indicating a net loss of cells following treatment was calculated from [(Ti−Tz)/Tz]×100=−50.
(§7) Values were calculated for each of these three parameters when the level of activity was reached; however, if the effect was not reached or was exceeded, the value for that parameter was expressed as greater or less than the maximum or minimum concentration tested.

PC3 (Prostate) cells = assay: Sulforhodamine B (SRB) assay, PC3; format: cell-based; conditions: Homo sapiens, Prostate cell, 48 h
Description: as §1, §2, §3, §4, §5, §6, §7

SF268 (CNS) cells = assay: Sulforhodamine B (SRB) assay, SF268; format: cell-based; conditions: Homo sapiens
Description: as §1, §2, §3, §4, §5, §6, §7

DU145 (Prostate) cells = assay: MTT cell proliferation/viability assay, DU145; format: cell-based; conditions: Homo sapiens, DU-145, 72 h
Description: Cell proliferation/viability was assessed by the MTT [3-(4,5-dimethylthiazol-2-yl)-2,5-diphenyltetrazolium bromide] assay, which is commercially available (Sigma, St. Louis, Mo.). Cells were cultured in 96-well plates for twenty-four hours (7-10.000 cells/well) and incubated with various concentrations of the different compounds—as indicated in the Figures—in serum-containing medium (or left untreated) for seventy-two hours. At the end of incubation, the medium was aspirated and MTT dissolved in RPMI 1640 w/o phenol red was added to each well to a final concentration of 0.25 mg/ml. After four hours incubation in the dark (37° C., 5% CO2) the supernatant was discarded. The converted dye (blue formazan crystals) was solubilized by adding 200 μl dimethylsulfoxide to each well. Absorbance was measured at 550 nm with reference at 655 nm using a spectrophotometer with the respective filters. All assays were performed in triplicate.
The effect of the different compounds on the proliferation and viability of two cancer cell lines (DU145/prostate and CAKI/renal) was tested through quantitative (4,5-dimethylthiazol-2-yl)-2,5-diphenyltetrazolium bromide (MTT) assays.

SMILES: C[C@]12CCC(=NOC3CCNC3)CC1CCC1C2CC[C@]2(C)C(=O)C(F)CC12 (stereo partly drawn) [Compound 2, (5S,10S,13S,16R)-16a-fluoro-10,13-dimethyl-3-((S)-pyrrolidin-3-yloxyimino)-tetradecahydro-2H-cyclopenta[a]phenanthren-17(14H)-one]
- IC50 [1]: 0.073 µM
- TGI (H460 (Lung) cells; H460 Lung, SRB, 48 h): 0.007 µM
- CC50 (H460 (Lung) cells; Homo sapiens, NCI-H460, 48 h, read-out: LC50): 0.054 µM
- GI50 (H460 (Lung) cells; Homo sapiens, NCI-H460, H460 Lung, SRB, 48 h): < 0.001 µM
- CC50 (PC3 (Prostate) cells; read-out: LC50): 0.962 µM
- GI50 (PC3 (Prostate) cells; PC3 Prostate, SRB): 0.046 µM
- IC (TGI) (PC3 (Prostate) cells; PC3 Prostate, SRB): 0.414 µM
- CC50 (SF268 (CNS) cells; SF-268, 48 h, read-out: LC50): 0.112 µM
- GI50 (SF268 (CNS) cells; SF-268, SF268 CNS, SRB, 48 h): 0.003 µM
- IC (TGI) (SF268 (CNS) cells; SF-268, SF268 CNS, SRB, 48 h): 0.043 µM
- IC50 (DU145 (Prostate) cells): 0.25 µM
